23 compounds from patent US10533010B2, “Substituted indole Mcl-1 inhibitors” (Vanderbilt University, priority 2014, dated 2020) can be followed below.

The structures appear in SMILES notation. Bounds are passed on as bounds.

The target in the assay is recombinant Mcl-1 (residues 172-327) (Homo sapiens (Human), UniProt Q07820). The assay can be described thus: Fluorescence polarization anisotropy competition assay (FITC-Bak or FITC-Bim BH3 peptide) with Mcl-1. The class given is binding. The note with it: Table 2; Ki bins given in nM; FITC-Bak or FITC-Bim peptide competition; Ki converted from IC50; read-out: Ki for Inhibition of Mcl-1.
recombinant Mcl-1 (residues 172-327), sequence (Q07820 172-327): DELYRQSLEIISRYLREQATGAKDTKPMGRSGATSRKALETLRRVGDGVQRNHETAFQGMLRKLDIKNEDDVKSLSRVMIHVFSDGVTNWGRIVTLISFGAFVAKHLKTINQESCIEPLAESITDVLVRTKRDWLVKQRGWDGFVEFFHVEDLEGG

`Cc1cc(OCCCc2c3n(c4c(-c5c(C)nn(C)c5C)c(Cl)ccc24)C[C@@H](C)N(Cc2ccc(C(=O)O)cc2)C3=O)cc(C)c1Cl` [I-120, (R)-4-((7-chloro-10-(3-(4-chloro-3,5-dimethylphenoxy)propyl)-3-methyl-1-oxo-6-(1,3,5-trimethyl-1H-pyrazol-4-yl)-3,4-dihydropyrazino[1,2-a]indol-2(1H)-yl)methyl)benzoic acid]: the inhibitory constant (Ki) (in general, the dissociation constant of the complex between target and ligand, obtained from inhibition or displacement) is under 50 nM.

As for `Cc1cc(OCCCc2c3n(c4c(-c5c(C)nn(C)c5C)c(Cl)ccc24)CCCN(Cc2cc(C(=O)O)cc(Cl)n2)C3=O)cc(C)c1Cl` [I-298, 2-chloro-6-((8-chloro-1-(3-(4-chloro-3,5-dimethylphenoxy)propyl)-1-oxo-7-(1,3,5-trimethyl-1H-pyrazol-4-yl)-4,5-dihydro-1H-[1,4]diazepino[1,2-a]indol-2(3H)-yl)methyl)isonicotinic acid], the Ki was under 50 nM. The same measure for `Cc1cc(OCCCc2c3n(c4c(-c5c(C)nn(C)c5C)c(Cl)ccc24)CCCN(c2cc(C(=O)O)cc(-c4cccn4C)c2)C3=O)cc(C)c1Cl` [I-235, 3-(8-chloro-11-(3-(4-chloro-3,5-dimethylphenoxy)propyl)-1-oxo-7-(1,3,5-trimethyl-1H-pyrazol-4-yl)-4,5-dihydro-1H-[1,4]diazepino[1,2-a]indol-2(3H)-yl)-5-(1-methyl-1H-pyrrol-2-yl)benzoic acid]: under 50 nM; for `Cc1cc(OCCCc2c(C(=O)Nc3ccc(C(=O)O)c(N4CCN(C)CC4)c3)[nH]c3c(-c4c(C)nn(C)c4C)c(Cl)ccc23)cc(C)c1Cl` [I-90, 4-(6-chloro-3-(3-(4-chloro-3,5-dimethylphenoxy)propyl)-7-(1,3,5-trimethyl-1H-pyrazol-4-yl)-1H-indole-2-carboxamido)-2-(4-methylpiperazin-1-yl)benzoic acid]: under 50 nM; for `Cc1cc(OCCCc2c3n(c4c(-c5c(C)nn(C)c5C)c(Cl)ccc24)CCN(Cc2ccc(C(=O)O)cn2)C3=O)cc(C)c1Cl` [I-142, 6-((7-chloro-10-(3-(4-chloro-3,5-dimethylphenoxy)propyl)-1-oxo-6-(1,3,5-trimethyl-1H-pyrazol-4-yl)-3,4-dihydropyrazino[1,2-a]indol-2(1H)-yl)methyl)nicotinic acid]: under 50 nM. With `Cc1cc(OCCCc2c(C(=O)NCc3ccnc(N4CCc5ccccc5C4)c3)[nH]c3c(-c4c(C)nn(C)c4C)cccc23)cc(C)c1Cl` [I-263, 3-(3-(4-chloro-3,5-dimethylphenoxy)propyl)-N-((2-(3,4-dihydroisoquinolin-2(1H)-yl)pyridin-4-yl)methyl)-7-(1,3,5-trimethyl-1H-pyrazol-4-yl)-1H-indole-2-carboxamide], the Ki lay within 301 to 500 nM. Regarding `Cc1cc(OCCCc2c3n(c4c(-c5c(C)nn(C)c5C)c(Cl)ccc24)CCCN(Cc2cc(COc4ccccc4C(F)(F)F)cc(C(=O)O)c2)C3=O)cc(C)c1Cl` [I-312, 3-((8-chloro-11-(3-(4-chloro-3,5-dimethylphenoxy)propyl)-1-oxo-7-(1,3,5-trimethyl-1H-pyrazol-4-yl)-4,5-dihydro-1H-[1,4]diazepino[1,2-a]indol-2(3H)-yl)methyl)-5-((2-(trifluoromethyl)phenoxy)methyl)benzoic acid], the Ki was in the range of 51 to 100 nM.

With `Cc1cc(OCCCc2c(C(=O)N3CCN(c4ccc(C(=O)O)cc4)CC3)n(Cc3ccccc3)c3c(-c4c(C)nn(C)c4C)c(Cl)ccc23)cc(C)c1Cl` [I-342, 4-(4-(1-benzyl-6-chloro-3-(3-(4-chloro-3,5-dimethylphenoxy)propyl)-7-(1,3,5-trimethyl-1H-pyrazol-4-yl)-1H-indole-2-carbonyl)piperazin-1-yl)benzoic acid], the inhibition constant (Ki) lay within 51 to 100 nM. For the compound `Cc1cc(OCCCc2c(C(=O)N3CCN(c4ccc(C(=O)O)cc4)CC3)n(Cc3cccnc3)c3c(-c4c(C)nn(C)c4C)c(Cl)ccc23)cc(C)c1Cl` [I-338, 4-(4-(6-chloro-3-(3-(4-chloro-3,5-dimethylphenoxy)propyl)-1-(pyridin-3-ylmethyl)-7-(1,3,5-trimethyl-1H-pyrazol-4-yl)-1H-indole-2-carbonyl)piperazin-1-yl)benzoic acid], the inhibition constant Ki is under 50 nM. With `Cc1cc(OCCCc2c(C(=O)NCc3ccc(C(=O)O)cc3)n(CCN3CCOCC3)c3c(-c4c(C)nn(C)c4C)c(Cl)ccc23)cc(C)c1Cl` [I-373, 4-((6-chloro-3-(3-(4-chloro-3,5-dimethylphenoxy)propyl)-1-(2-morpholinoethyl)-7-(1,3,5-trimethyl-1H-pyrazol-4-yl)-1H-indole-2-carboxamido)methyl)benzoic acid], the Ki is under 50 nM.

As for `Cc1cc(OCCCc2c(C(=O)Nc3cc(C(=O)O)cc(N(C)CCN(C)C)c3)[nH]c3c(-c4c(C)nn(C)c4C)c(Cl)ccc23)cc(C)c1Cl` [I-210, 3-(6-chloro-3-(3-(4-chloro-3,5-dimethylphenoxy)propyl)-7-(1,3,5-trimethyl-1H-pyrazol-4-yl)-1H-indole-2-carboxamido)-5-((2-(dimethylamino)ethyl)(methyl)amino)benzoic acid], the Ki was under 50 nM.

On to `Cc1cc(OCCCc2c(C(=O)N3CCN(c4ccc(C(=O)O)cc4)CC3)[nH]c3c(-c4c(C)nn(C)c4C)c(Cl)ccc23)cc(C)c1Cl` [I-335, 4-(4-(6-chloro-3-(3-(4-chloro-3,5-dimethylphenoxy)propyl)-7-(1,3,5-trimethyl-1H-pyrazol-4-yl)-1H-indole-2-carbonyl)piperazin-1-yl)benzoic acid], for which the Ki was under 50 nM. In the case of `Cc1cc(OCCCc2c(C(=O)N[C@H]3CC[C@@H](C(=O)O)C3)[nH]c3c(-c4c(C)nn(C)c4C)c(Cl)ccc23)cc(C)c1Cl` [I-330, (1R,3S)-3-(6-chloro-3-(3-(4-chloro-3,5-dimethylphenoxy)propyl)-7-(1,3,5-trimethyl-1H-pyrazol-4-yl)-1H-indole-2-carboxamido)cyclopentane-1-carboxylic acid], the Ki is under 50 nM. With `Cc1cc(OCCCc2c3n(c4c(-c5c(C)nn(C)c5C)c(Cl)ccc24)CCCN(c2cc(C(=O)O)cc4c2OCCO4)C3=O)cc(C)c1Cl` [I-364, 8-(8-chloro-11-(3-(4-chloro-3,5-dimethylphenoxy)propyl)-1-oxo-7-(1,3,5-trimethyl-1H-pyrazol-4-yl)-4,5-dihydro-1H-[1,4]diazepino[1,2-a]indol-2(3H)-yl)-2,3-dihydrobenzo[b][1,4]dioxine-6-carboxylic acid] the figure was under 50 nM; with `Cc1cc(OCCCc2c3n(c4c(-c5c(C)nn(C)c5C)c(Cl)ccc24)CCCN(c2cc(CO)cc(C(=O)O)c2)C3=O)cc(C)c1Cl` [I-224, 3-(8-chloro-11-(3-(4-chloro-3,5-dimethylphenoxy)propyl)-1-oxo-7-(1,3,5-trimethyl-1H-pyrazol-4-yl)-4,5-dihydro-1H-[1,4]diazepino[1,2-a]indol-2(3H)-yl)-5-(hydroxymethyl)benzoic acid], under 50 nM. As to `Cc1cc(OCCCc2c(C(=O)NCc3cccc(C(=O)O)c3)[nH]c3c(-c4c(C)n[nH]c4C)cccc23)cc(C)c1Cl` [I-25a, 3-((3-(3-(4-chloro-3,5-dimethylphenoxy)propyl)-7-(3,5-dimethyl-1H-pyrazol-4-yl)-1H-indole-2-carboxamido)methyl)benzoic acid], the Ki was under 50 nM.

Regarding `Cc1cc(OCCCc2c(C(=O)N(C)Cc3cc(C(=O)O)c(C)o3)n(C)c3c(-c4c(C)nn(C)c4C)cccc23)cc(C)c1Cl` [I-274, 5-((3-(3-(4-chloro-3,5-dimethylphenoxy)propyl)-N,1-dimethyl-7-(1,3,5-trimethyl-1H-pyrazol-4-yl)-1H-indole-2-carboxamido)methyl)-2-methylfuran-3-carboxylic acid], the Ki lay in the range of 101 to 299 nM.

Consider `Cc1cc(C(=O)O)ccc1N1CCCn2c(c(CCCOc3cc(C)c(Cl)c(C)c3)c3ccc(Cl)c(-c4c(C)nn(C)c4C)c32)C1=O` [I-97, 4-(8-chloro-11-(3-(4-chloro-3,5-dimethylphenoxy)propyl)-1-oxo-7-(1,3,5-trimethyl-1H-pyrazol-4-yl)-4,5-dihydro-1H-[1,4]diazepino[1,2-a]indol-2(3H)-yl)-3-methylbenzoic acid], for which the Ki is under 50 nM. The same measure for `Cc1cc(OCCCc2c3n(c4c(-c5c(C)nn(C)c5C)c(Cl)ccc24)CCN(Cc2ccc(C(=O)O)cc2)C3=O)cc(C)c1Cl` [I-140, 4-((7-chloro-10-(3-(4-chloro-3,5-dimethylphenoxy)propyl)-1-oxo-6-(1,3,5-trimethyl-1H-pyrazol-4-yl)-3,4-dihydropyrazino[1,2-a]indol-2(1H)-yl)methyl)benzoic acid]: under 50 nM; for `Cc1cc(OCCCc2c(C(=O)N[C@H]3CCCC[C@H]3C(=O)O)[nH]c3c(-c4c(C)nn(C)c4C)cccc23)cc(C)c1Cl` [I-316, (1R,2S)-2-(3-(3-(4-chloro-3,5-dimethylphenoxy)propyl)-7-(1,3,5-trimethyl-1H-pyrazol-4-yl)-1H-indole-2-carboxamido)cyclohexane-1-carboxylic acid]: under 50 nM.

Consider `Cc1cc(OCCCc2c3n(c4c(-c5c(C)nn(C)c5C)c(Cl)ccc24)CCCN(c2cccc(C#N)c2)C3=O)cc(C)c1Cl` [I-353, 3-(8-chloro-11-(3-(4-chloro-3,5-dimethylphenoxy)propyl)-1-oxo-7-(1,3,5-trimethyl-1H-pyrazol-4-yl)-4,5-dihydro-1H-[1,4]diazepino[1,2-a]indol-2(3H)-yl)benzonitrile], for which the Ki was 51 to 100 nM. Regarding `Cc1cc(OCCCc2c3n(c4c(-c5c(C)nn(C)c5C)c(Cl)ccc24)C[C@@H](C)N(c2ccc(C(=O)O)cc2)C3=O)cc(C)c1Cl` [I-156, (R)-4-(7-chloro-10-(3-(4-chloro-3,5-dimethylphenoxy)propyl)-3-methyl-1-oxo-6-(1,3,5-trimethyl-1H-pyrazol-4-yl)-3,4-dihydropyrazino[1,2-a]indol-2(1H)-yl)benzoic acid], the Ki was under 50 nM. Take `Cc1cc(OCCCc2c3n(c4c(-c5c(C)nn(C)c5C)c(Cl)ccc24)[C@H](C)CN(c2ccc(C(=O)O)cc2)C3=O)cc(C)c1Cl` [I-172, (R)-4-(7-chloro-10-(3-(4-chloro-3,5-dimethylphenoxy)propyl)-4-methyl-1-oxo-6-(1,3,5-trimethyl-1H-pyrazol-4-yl)-3,4-dihydropyrazino[1,2-a]indol-2(1H)-yl)benzoic acid]: the Ki is under 50 nM.
